Experiments:
[1] = ABTS radical scavenging assay; conditions: 6 min
Description: The ABTS radical cation scavenging assay is a decolorization assay frequently used as an antioxidant activity estimation protocol. […] The absorbance is measured at 734 nm and the antioxidant capacity is compared to a standard antioxidant solution, such as ascorbic acid.
For the evaluation of antioxidant activity, the scavenging capacities of all samples were measured via the ABTS assay, as previously described by Kontogiorgis et al. with some modifications. Briefly, an ethanolic standard ABTS solution (7 mM) was prepared by the addition of ABTS salt and potassium persulfate. […] Each sample was diluted in DMSO and tested in triplicate. The tested mixture contained 10–20 µL of sample and 990–980 µL of the ABTS solution, for a total volume of 1 ml. Blank samples contained equal amounts of DMSO instead of the coumarin analogues, and ascorbic acid was used as a reference sample for the final evaluation of the ABTS scavenging capacity. All mixtures were stored at room temperature to allow decolorization and measured after 6 min. The percentage reduction of the ABTS radical was evaluated according to the following Equation (3):(3) % Reduction=Control OD (mean)−Sample OD (mean)/Control OD (mean)×100

HaCaT cells = assay: DCF-DA assay (intracellular ROS after H2O2); type: cell-based, human; conditions: H2O2 treatment, 24 h; for inhibition at 100 µM: Homo sapiens, 100 μΜ, read-out: DCFDA Assay, % (100 μΜ)
Source text: In the setting of evaluating bioactive compounds in terms of antioxidant capacity in various cell lines, DCF-DA is the most widely used assay for the detection of intracellular H2O2 and oxidative stress. DCF-DA is cell-permeable and is hydrolyzed intracellularly to the DCFH carboxylate anion, which is retained in the cell.
DCFDA is a fluorescent dye that measures the activity of hydroxyl radicals, peroxyl radicals, and other reactive oxygen species (ROS) within the cell. The DCFDA analysis protocol is based on the diffusion of DCFDA into the cell. It is then deacetylated from cellular esterases to a non-fluorescent compound, which is later oxidized by ROS to 2’,7’ -dichlorofluoroscein (DCF). The produced compound (DCF) is fluorescent and is detected by fluorescence spectroscopy at 485/535 nm (excitation/emission).
For the experimental procedure a standard solution of DCF-DA (20mM) in DMSO was prepared which was stored in the dark (−20 °C) until use. In a 96-well plate, cells were cultured to a density of 3 × 10^4 cells/well.
The cells remained in the incubator (37 °C, 5% CO2) for 24 h, after which an appropriate amount of H2O2 (2 mM) was added and the dish was returned for incubation for the next 2 h. This was followed by the addition of the test substances (100μM) and incubation for 24 h. At the end of the treatment time, all wells were washed with PBS, and DCF-DA solution (working concentration: 10 μM) (in 200 μL of nutrient) was added and incubated for 40 min.
After incubation, the medium with the DCF-DA was removed and replaced with FBS-free DMEM. The measurement of the […] was made immediately after that in a plate reader at 495/530 nm (excitation/emission).
All samples were tested in triplicates, against a control (without effects), blank (without cells), and positive control (standard 100 μM Ascorbic acid solution was used).
The percentage of antioxidant capacity (%) was calculated according to the following Equation (6) evaluating the presence of ROS [42]:(6) % AI=( OD Sample 530 nm−Blank)−(OD Control 530 nm−Blank)/(OD Control 530 nm−Blank) × 100

[2] = MTT cell viability assay, HaCaT; type: cell-based, human; conditions: human, HaCaT cells, 100 μΜ, 24 h
Source text: The MTT assay (3- [4,5-dimethylthiazol-2-yl] -2,5 diphenyl tetrazole) is based on the conversion of MTT to formazan crystals by living cells, which determines mitochondrial activity. Since for most cell populations total mitochondrial activity is related to the number of viable cells, this assay is widely used to measure the in vitro cytotoxic effects of drugs on various cell lines or primary cells. The principle of the MTT assay is that for most viable cells the mitochondrial activity is stable, and therefore, an increase or decrease in the number of viable cells is linearly related to mitochondrial activity. The mitochondrial activity of the cells is reflected by the conversion of the MTT tetrazole salt to formazan crystals (bright purple), which can be solubilized (in this protocol with DMSO) for homogeneous measurement. Thus, any increase or decrease in the number of viable cells can be detected by measuring the formazan concentration reflected in the optical density (OD) measurement at 540 nm with a reference absorption of 720 nm.
All the compounds were tested for their cytotoxic activity against blank and control samples in the human epidermal keratinocyte line (HaCaT), at the concentration of 100 μΜ, and the results are presented in Table 4.
(§1) This protocol was used for the evaluation of cell viability and all the cell lines. It must be noted that this assay describes the count of cells that remain alive after the treatment. For the experimental procedure a standard solution of MTT 1mg/mL in PBS was prepared which after filtration ([…] filter (Millipore, Carrigtwohill, Ireland)) was stored in the dark (4–8 °C) until use. In a 96-well plate, HaCaT, A549 and A375 cells were seeded in a number of 30 × 10^4 cells/well for each evaluation series respectively. The cells were incubated (37 °C, 5% CO2) for 24 h, followed by the addition of the tested analogues (100 μM, diluted in DMEM) and another 24-h incubation. Next, appropriate amount of MTT was added in the tested wells and the plate returned to the incubator for the next 4 h for the formation of the formazan crystals. The formazan crystals were then redissolved by adding DMSO (100 μL) and stirring lightly for 40 min, after which the absorbance was measured in a plate reader at 540 nm with a reference absorbance of 720 nm.
(§2) All samples were tested in triplicate, against a control (only cells), blank (no cells), and positive control (100 μM standard silibinin solution was used as a “cell-killing” standard).

A549 cells = assay: MTT cytotoxicity assay, A549; type: cell-based, human; conditions: 24 h; for cytotoxicity at 100 µM: Homo sapiens, A549, 100 μΜ, read-out: Cell Toxicity A549 % (100 μΜ)
Description: (§3) Furthermore, the coumarin compounds synthesized in this study were also evaluated for their cytotoxicity against A549 (adenocarcinomic human alveolar basal epithelial cells) and A375 (human melanoma) cell lines.
as §1, §2

A375 cells = assay: MTT cytotoxicity assay, A375; type: cell-based, human; conditions: Homo sapiens, A-375, 24 h, A375, 100 μΜ, read-out: Cell Toxicity A375 % (100 μΜ)
Description: as §3, §1, §2

Structure (SMILES)	ABTS^•+ % (100 μΜ) [1]	inhibition at 100 µM (HaCaT cells) [%]	viability at 24 h, 100 μM [2] [%]	Cell Toxicity A549 % (100 μΜ) (A549 cells)	cytotoxicity at 100 µM (A375 cells) [%]	cytotoxicity at 100 µM (A549 cells) [%]	DCFDA Assay, % (100 μΜ) (HaCaT cells)
CC(=O)Oc1cccc2oc(=O)c(-c3ccccc3Cl)c(C)c12 [Compound 3a, 5-acetyloxy-3-(2-chlorophenyl)-4-methyl-chromen-2-one]	no	33.8	100	no	38.7		
CC(=O)Oc1cccc2oc(=O)c(-c3cccc(Cl)c3)c(C)c12 [Compound 3b, 5-acetyloxy-3-(3-chlorophenyl)-4-methyl-chromen-2-one]	1.9%	56.9	100		> 60	24.6	
CC(=O)Oc1cccc2oc(=O)c(-c3ccc(Cl)cc3)c(C)c12 [Compound 3c, 5-acetyloxy-3-(4-chlorophenyl)-4-methyl-chromen-2-one]	15.0%		100	no	24.8		no
CC(=O)Oc1cccc2oc(=O)c(-c3ccccc3F)c(C)c12 [Compound 3d, 5-acetyloxy-3-(2-fluorophenyl)-4-methyl-chromen-2-one]	no	22.4	100		28.5	7.5	
CC(=O)Oc1cccc2oc(=O)c(-c3cccc(F)c3)c(C)c12 [Compound 3e, 5-acetyloxy-3-(3-fluorophenyl)-4-methyl-chromen-2-one]	2.0%		96.5		> 60	8.9	no
CC(=O)Oc1cccc2oc(=O)c(-c3ccc(F)cc3)c(C)c12 [Compound 3f, 5-acetyloxy-3-(4-fluorophenyl)-4-methyl-chromen-2-one]	no	100	100	no	35.8		
CC(=O)Oc1cccc2oc(=O)c(-c3cccc(Br)c3)c(C)c12 [Compound 3g, 5-acetyloxy-3-(3-bromophenyl)-4-methyl-chromen-2-one]	2.8%	45.5	100	no	7.02		
CC(=O)Oc1ccc(-c2c(C)c3ccccc3oc2=O)cc1 [Compound 3h, 3-(4-acetyloxyphenyl)-4-methyl-chromen-2-one]	no		96.2	no	43.2		no
CC(=O)Oc1ccc(-c2c(C)c3cc(Br)ccc3oc2=O)cc1 [Compound 3i, 3-(4-acetyloxyphenyl)-6-bromo-4-methyl-chromen-2-one]	no	80.9	100	no	50 to 60		
CC(=O)Oc1ccc(-c2c(C)c3cc(Cl)ccc3oc2=O)cc1 [Compound 3j, 3-(4-acetyloxyphenyl)-6-chloro-4-methyl-chromen-2-one]	no	9	90.5	no	50 to 60		
CC(=O)Oc1ccc(-c2c(C)c3cc(Br)cc(Br)c3oc2=O)cc1 [Compound 3k, 3-(4-acetyloxyphenyl)-6,8-dibromo-4-methyl-chromen-2-one]	no		100	no	28.8		no
CC(=O)Oc1ccc(-c2c(C)c3ccccc3oc2=O)cc1OC(C)=O [Compound 3l, 3-(4,5-diacetyloxyphenyl)-4-methyl-chromen-2-one]	2.8%		100	no	40.4		no
CC(=O)Oc1ccc(-c2c(C)c3cc(Br)ccc3oc2=O)cc1OC(C)=O [Compound 3m, 3-(4,5-diacetyloxyphenyl)-6-bromo-4-methyl-chromen-2-one]	no		100	no	33.3		no
CC(=O)Oc1ccc(-c2c(C)c3cc(Cl)ccc3oc2=O)cc1OC(C)=O [Compound 3n, 3-(4,5-diacetyloxyphenyl)-6-chloro-4-methyl-chromen-2-one]	no		100	no	11.5		no
CC(=O)Oc1ccc(-c2c(C)c3cc(Br)cc(Br)c3oc2=O)cc1OC(C)=O [Compound 3o, 3-(4,5-diacetyloxyphenyl)-6,8-dibromo-4-methyl-chromen-2-one]	no	25.7	100	no	45.6		

Reference: PMC8512853, “Synthesis, Bioactivity, Pharmacokinetic and Biomimetic Properties of Multi-Substituted Coumarin Derivatives” (Molecules, 2021)
